According to patent US5919770A, “Metabolites of ginseng saponins by human intestinal bacteria and its preparation for an anticancer” (Il Hwa Co., Ltd., priority 1996, dated 1999):

Tests used:
[1] = test system: leukemia cell line (P388); experiment: Antitumor activity of mouse spleen lymphocytes on leukemia cell line P388 (MTT); format: cell-based, mice; conditions: for activity at 2.5 µM: P388, 2.5 μM for 16 hours (Compound K 1.56, Compound Y 1.86, Ginsenoside Mc 1.86, 20(S)-protopanaxatriol 1.19 μg/ml), control 31.3%; for fold induction at 2.5 µM: P388, 16 h, read-out: Antitumor activity, times as high as control
Description: Antitumor activity on leukemia cell line (P388) in lymphocyte of mice
Spleen lymphocytes of mice and leukemia cell line (P388) were used for this experiment. Spleen lymphocytes (4×10^6 cells) and leukemia cells (P388) (2×10^8 cells) were cultured in a medium (RPMI 1640 supplemented with 20 μM mercaptoethanol and 10% fetal bovine serum) containing intestinal flora metabolite of ginseng saponin (2.5 μM) in 5% CO2 saturated with steam for 16 hours. Aside from this, same numbers of spleen lymphocytes or leukemia cell line were cultured in a medium containing intestinal flora metabolite of ginseng saponin in same is concentration as a control. The number of each survived cell was purified by MTT method to calculate impaired rate of cells on leukemia cells (P388) of lymphocytes.

Human lymphocyte (HL) = experiment: Inhibition on the proliferation of human lymphocyte (HL), MTT; format: cell-based; conditions: 24 hours
Description: (§1) Inhibition on the vascularization of tumor (Test for the inhibition on the proliferation)
(§2) Human lymphocyte (HL), leukemia cell line (K562) and bovine artery endotheliocyte (BAE) were used for this experiment. HL (1×10^5 cells), leukemia cell line (K562) (2×10^5 cells) and BAE (5×10^3 cells) were cultured in a medium (HL, K562: RPMI 1640 medium containg 10% fetal bovine, BAE: DMEM medium containing 10% fetal bovine) containing intestinal flora metabolites of ginseng saponin concentrated with 2-fold dilution in 5% CO2 saturated with steam (HL, K562: 24 hours, BAE: 72 hours). The number of each survived cell was purified by MTT method to calculate 50% inhibition concentration (IC50), impaired rate of cells (IC50 (HL)/IC50 (BAE) and IC50 (K562)/IC50 (BAE).

[2] = test system: leukemia cell line (K562); experiment: Inhibition on the proliferation of leukemia cell line K562, MTT; format: cell-based; conditions: for IC50: Homo sapiens, K562, 24 hours, MTT; for inhibitory activities on the proliferation of tumor cells: in words
Description: as §1, §2

[3] = test system: bovine artery endotheliocyte (BAE); experiment: Inhibition on the proliferation of bovine artery endotheliocyte (BAE), MTT; format: cell-based; conditions: for IC50: Bos taurus, BAE, 72 hours, MTT; for IC50 (C)/IC50 (BAE), C = HL: ratio IC50 (HL)/IC50 (BAE); for IC50 (C)/IC50 (BAE), C = K562: ratio IC50 (K562)/IC50 (BAE)
Description: as §1, §2

[4] = test system: bovine artery endotheliocyte (BAE); experiment: Inhibition on the migration of bovine artery endotheliocyte (vascularization of tumor); format: cell-based; conditions: for Migration-inhibition (% control), IC10: at the 10% inhibitory concentration (IC10); for Migration-inhibition (% control), IC10 / Migration-inhibition (% control), IC50: 24 hours; for Migration-inhibition (% control), IC50: at the 50% inhibitory concentration (IC50)
Description: Inhibition on the vascularization of tumor (Test for the inhibition on the migration)
Bovine artery endotheliocyte (BAE) was used for this experiment. BAE (5×10^3 cells) was cultured in 6-well plate for 24 hours and cells attached to the plate were detached by a razor. Said medium was replaced by a new one and after one hour, a solution of intestinal flora metabolite of ginseng saponin was added to the desired inhibitory concentration of 10% and 50%, respectively for 24-hour cultivation. After completing the cultivation, cells were fixed with methanol, stained with Giemsa method and counted the cells migrated from the detached line under microscope.

[5] = test system: Human adenosarcoma tissue cell (HT1080); experiment: Inhibition on the extravasation of basement membrane (haptoinvasion, matrigel/FN filter); format: cell-based; conditions: for IC50 / inhibition at 10 µM / inhibition at 100 µM / inhibition at 1000 µM / inhibition at 1 µM: Homo sapiens; for IC50: HT-1080, 4 h, 50% inhibition of extravasation, read-out: ED50 (50% extravasation-inhibitory concentration); for inhibition at 10 µM / inhibition at 100 µM / inhibition at 1000 µM / inhibition at 1 µM: HT-1080, read-out: Inhibition rate (%)
Description: Inhibition on the extravasation of basement membrane
The transwell culture chamber was used for this experiment with a haptoinvasion method (reference: Cancer Res., 47, 3239, (1987)). The lower side of a filter having a hole of 8.0 μm in diameter was coated with 5 μg of matrigel for the fabrication of matrigel/FN filter. Human […] tissue cell (HT1080), treated in the intestinal flora metabolite of ginseng saponin in a concentration of 1-1000 μM at 37° C. for 30 minutes, was charged to the upper side of each filter with 1×10^5 cells/100 μL. Then, said filters were added to 24-well plate having 600 μL of MEM medium supplemented with 0.1% bovine serum albumin and them cultured for 4-hour cultivation. After completing the cultivation, cells were fixed with methanol and stained with hematoxylin, a tissue staining agent. Following the removal of cells at the upper side with a cotton pole, cells infiltrating into the lower side were counted under microscope.

[6] = Toxicity in animal experiments with rats and mice
cancer cells = conditions: Japanese Patent No. 93-9123, Sato et al. 1994; cited from earlier work

SMILES | activity at 2.5 µM [1] [%] | fold induction at 2.5 µM [1] | IC50 (Human lymphocyte (HL)) [µM] | IC50 [2] [µM] | IC50 [3] [µM] | IC50 (C)/IC50 (BAE), C = HL [3] | IC50 (C)/IC50 (BAE), C = K562 [3] | Migration-inhibition (% control), IC10 [4] [% control] | Migration-inhibition (% control), IC50 [4] [% control] | No. of infiltrated cancer cell/field ([5]; 1 μM) [cell/field] | No. of infiltrated cancer cell/field ([5]; 10 μM) [cell/field] | No. of infiltrated cancer cell/field ([5]; 100 μM) [cell/field] | No. of infiltrated cancer cell/field ([5]; 1000 μM) [cell/field] | IC50 [5] [µM] | inhibition at 10 µM ([5]; 10 μM) [%] | inhibition at 100 µM ([5]; 100 μM) [%] | inhibition at 1000 µM ([5]; 1000 μM) [%] | also measured
CC(C)=CCC[C@](C)(O)[C@H]1CC[C@]2(C)[C@@H]1[C@H](O)C[C@@H]1[C@@]3(C)CC[C@H](O)C(C)(C)[C@@H]3[C@@H](O)C[C@]12C [20(S)-protopanaxatriol] | 82.4 | 2 | 280 | 49 | 36 | 7.8 | 1.4 | -1.6 | 30.0 | 103 ± 14 | 93 ± 7 | 18 ± 4 | 1 ± 1 | 48 | 4 | 81 | 99 | inhibitory activities on the proliferation of tumor cells [2]: exhibited inhibitory activities on the proliferation of tumor cells
CC(C)=CCC[C@](C)(O[C@@H]1O[C@H](CO)[C@@H](O)[C@H](O)[C@H]1O)[C@H]1CC[C@]2(C)[C@@H]1[C@H](O)C[C@@H]1[C@@]3(C)CC[C@H](O)C(C)(C)[C@@H]3CC[C@]12C [Compound K] | 51.5 | 1.6 | 45 | 26 | 28 | 1.7 | 1.6 | 4.6 | 43.2 | 73 ± 4 | 45 ± 9 | 0 |  | 3.2 | 62 | 100 |  | inhibitory activity of migration ([4]; in words, control Suramin): more potent inhibitory activity of migration than Suramin; inhibition at 1 µM ([5]; 1 μM): 38%
CC(C)=CCC[C@](C)(O[C@@H]1O[C@H](CO[C@@H]2OC[C@H](O)[C@H](O)[C@H]2O)[C@@H](O)[C@H](O)[C@H]1O)[C@H]1CC[C@]2(C)[C@@H]1[C@H](O)C[C@@H]1[C@@]3(C)CC[C@H](O)C(C)(C)[C@@H]3CC[C@]12C [Compound Y, 20-0-[α-L-arabinopyranosyl (1→6)-β-D-glucopyranosyl]-20(S)-protopanaxadiol] | 56.6 | 1.8 | 83 | 78 | 32 | 2.6 | 2.6 | -3.7 | 28.9 | 125 ± 7 | 92 ± 11 | 24 ± 2 | 0 | 31 | 21 | 62 | 100 | 
CC(C)=CCC[C@](C)(O[C@@H]1O[C@H](CO[C@@H]2O[C@@H](CO)[C@H](O)[C@H]2O)[C@@H](O)[C@H](O)[C@H]1O)[C@H]1CC[C@]2(C)[C@@H]1[C@H](O)C[C@@H]1[C@@]3(C)CC[C@H](O)C(C)(C)[C@@H]3CC[C@]12C [Ginsenoside Mc, 20-0-[α-L-arabinofuranosyl(1→6)-β-D-glucopyranosyl-20(S)-protopanaxadiol]] | 63.3 | 2 | 220 | 480 | 26 | 8.5 | 18 | -1.6 | 30.0 | 114 ± 12 | 44 ± 7 | 3 ± 1 | 0 | 7.6 | 62 | 97 | 100 | inhibitory activities on the proliferation of tumor cells [2]: exhibited inhibitory activities on the proliferation of tumor cells; inhibition at 1 µM ([5]; 1 μM): 3%; toxicity [6]: nearly negligible
Cc1ccc(C(=O)Nc2ccc(S(=O)(=O)O)c3cc(S(=O)(=O)O)cc(S(=O)(=O)O)c23)cc1NC(=O)c1cccc(NC(=O)Nc2cccc(C(=O)Nc3cc(C(=O)Nc4ccc(S(=O)(=O)O)c5cc(S(=O)(=O)O)cc(S(=O)(=O)O)c45)ccc3C)c2)c1 [Suramin, reference compound] |  |  |  |  |  |  |  | -3.8 | 37.1 |  |  |  |  |  |  |  |  | 
CC(C)=CCC[C@](C)(O[C@@H]1O[C@H](CO[C@@H]2OC[C@H](O)[C@H](O)[C@H]2O)[C@@H](O)[C@H](O)[C@H]1O)[C@H]1CC[C@]2(C)[C@@H]1[C@H](O)C[C@@H]1[C@@]3(C)CC[C@H](O[C@@H]4O[C@H](CO)[C@@H](O)[C@H](O)[C@H]4O[C@@H]4O[C@H](CO)[C@@H](O)[C@H](O)[C@H]4O)C(C)(C)[C@@H]3CC[C@]12C [ginsenoside Rb2] |  |  |  |  |  |  |  |  |  |  |  |  |  |  |  |  |  | inhibition of vascularization of tumors, extravasation and metastasis of cancer cells (cancer cells): inhibit the vascularization of tumors and extravasation of cancer cells including inhibitory actions on the metastatis of cancer cells
CC(C)=CCC[C@@](C)(O)[C@H]1CC[C@]2(C)[C@@H]1[C@H](O)C[C@@H]1[C@@]3(C)CC[C@H](O[C@@H]4O[C@H](CO)[C@@H](O)[C@H](O)[C@H]4O[C@@H]4O[C@H](CO)[C@@H](O)[C@H](O)[C@H]4O)C(C)(C)[C@@H]3CC[C@]12C [ginsenoside Rg3, 3-0-[β-D-glucopyranosyl(1→2)-β-D-glucopyranosyl]-20(R)-protopanaxadiol] |  |  |  |  |  |  |  |  |  |  |  |  |  |  |  |  |  | inhibition of vascularization of tumors, extravasation and metastasis of cancer cells (cancer cells): inhibit the vascularization of tumors and extravasation of cancer cells including inhibitory actions on the metastatis of cancer cells
